Read-outs that look alike come from different tables or passages of the source.
How the values were obtained:
CALU = molecular target: T1, CALU (Homo sapiens, UniProt O43852); assay: Viral trapping in VLPs, MS analysis; assay type: binding; details: all proteins (incl. low confidence identifications)
T1 construct: endogenous in cells; host or cells: HEK293T
Description: (§1) For mass spectrometry, 10^7 HEK293T cells were seeded in five flasks (75 cm^2) and transfected the next day with a total of 15 μg DNA per flask using polyethylene imine reagent. The following DNA quantities were used per flask: 7.5 μg of GAG-eDHFR, 5.4 μg of mock vector and 2.1 μg of a 50/50 mix of pMD2.G and pcDNA3-FLAG-VSV-G. The small molecule fusions were added immediately after transfection to the producing cells at a concentration of 1 μM. The same dilution of dimethyl sulfoxide (DMSO) was added in control experiments to control the effect of this chemical on the cells. The cellular supernatant was harvested after 32 hours and was centrifuged for 3 minutes at 450×g to remove cellular debris. The cleared supernatant was then filtered using 0.45 μm filters (Millipore). A total of 100 μl MyOne™ Streptavidin T1 beads (Life Technologies) pre-loaded with 10 μg ANTI-FLAG® BioM2-Biotin antibody (Sigma-Aldrich®) was used to bind the tagged particles. Particles were allowed to bind for 2 hours by end-over-end rotation. The total supernatant was processed in three consecutive binding steps. Bead-particle complexes were washed once with washing buffer (TWB: 20 mM Tris-HCl pH 7.5, 150 mM NaCl) and were then eluted with FLAG peptide (200 μg/ml in TWB) and lysed by addition of SDS to a final concentration of 0.1%. After 5 minutes, SDS was removed using HiPPR Detergent Removal Spin Columns (Pierce, Thermo Scientific) followed by boiling and overnight digestion with 0.5 μg sequence-grade trypsin (Promega). After acidification (0.1% TFA final), the peptides were separated by nano-LC and directly analyzed with a Q Exactive instrument (Thermo Scientific).
(§2) For tamoxifen, four biological repeats were performed where the cells were treated with MTX-PEG6-tamoxifen after transfection. The obtained protein lists after viral trapping and MS analysis were challenged with protein lists coming from the four DMSO controls, the 19 control experiments and the lists obtained for the MTX-PEG6-simvastatin and MTX-PEG6-reversine (see below) for a total of 30 samples.

NCS1 = molecular target: T2, NCS1 (Homo sapiens, UniProt P62166); assay: Viral trapping in VLPs, MS analysis; assay type: binding; details: all proteins (incl. low confidence identifications)
T2 construct: endogenous in cells; host or cells: HEK293T
Description: as §1, §2

SSNA1 = molecular target: T3, SSNA1 (Homo sapiens, UniProt O43805); assay: Viral trapping in VLPs, MS analysis; assay type: binding
T3 construct: endogenous in cells; host or cells: HEK293T
Description: as §1, §2

MDH2 = molecular target: T4, MDH2 (Homo sapiens, UniProt P40926); assay: Viral trapping in VLPs, MS analysis; assay type: binding
T4 construct: endogenous in cells; host or cells: HEK293T
Description: as §1, §2

CYP51A1 = molecular target: T5, CYP51A1 (Homo sapiens, UniProt Q16850); assay: Viral trapping in VLPs, MS analysis; assay type: binding; details: all proteins (incl. low confidence identifications)
T5 construct: endogenous in cells; host or cells: HEK293T
Description: as §1, §2

HSD17B4 = molecular target: T6, HSD17B4 (Homo sapiens, UniProt P51659); assay: Viral trapping in VLPs, MS analysis; assay type: binding
T6 construct: endogenous in cells; host or cells: HEK293T
T6 sequence (P51659 1-736): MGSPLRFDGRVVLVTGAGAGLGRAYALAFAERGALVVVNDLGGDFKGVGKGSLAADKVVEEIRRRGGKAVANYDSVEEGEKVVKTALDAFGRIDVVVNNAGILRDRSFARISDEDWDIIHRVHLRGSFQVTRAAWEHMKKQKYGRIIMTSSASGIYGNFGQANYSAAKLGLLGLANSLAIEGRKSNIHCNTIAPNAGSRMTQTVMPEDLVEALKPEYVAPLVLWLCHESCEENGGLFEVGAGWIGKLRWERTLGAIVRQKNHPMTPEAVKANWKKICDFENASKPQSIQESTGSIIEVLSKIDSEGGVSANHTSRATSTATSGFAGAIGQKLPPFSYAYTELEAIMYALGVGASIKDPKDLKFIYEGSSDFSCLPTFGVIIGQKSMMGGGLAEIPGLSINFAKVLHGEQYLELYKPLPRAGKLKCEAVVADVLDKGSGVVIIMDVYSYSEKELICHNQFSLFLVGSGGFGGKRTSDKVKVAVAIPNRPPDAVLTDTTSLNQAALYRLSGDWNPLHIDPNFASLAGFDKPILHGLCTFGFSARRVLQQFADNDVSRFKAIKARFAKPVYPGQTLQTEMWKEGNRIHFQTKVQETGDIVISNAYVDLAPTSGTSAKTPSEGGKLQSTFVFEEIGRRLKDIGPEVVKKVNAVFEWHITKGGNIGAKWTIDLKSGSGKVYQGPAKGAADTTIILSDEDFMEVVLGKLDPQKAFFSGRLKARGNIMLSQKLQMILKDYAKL
Description: as §1, §2

PTPLAD1 = molecular target: T7, PTPLAD1 (Homo sapiens, UniProt Q9P035); assay: Viral trapping in VLPs, MS analysis; assay type: binding; details: all proteins (incl. low confidence identifications)
T7 construct: endogenous in cells; host or cells: HEK293T
Description: as §1, §2

RNF5 = molecular target: T8, RNF5 (Homo sapiens, UniProt Q99942); assay: Viral trapping in VLPs, MS analysis; assay type: binding; details: all proteins (incl. low confidence identifications)
T8 construct: endogenous in cells; host or cells: HEK293T
Description: as §1, §2

ILVBL = molecular target: T9, ILVBL (Homo sapiens, UniProt A1L0T0); assay: Viral trapping in VLPs, MS analysis; assay type: binding; details: all proteins (incl. low confidence identifications)
T9 construct: endogenous in cells; host or cells: HEK293T
Description: as §1, §2

RTN4 = molecular target: T10, RTN4 (Homo sapiens, UniProt Q9NQC3); assay: Viral trapping in VLPs, MS analysis; assay type: binding
T10 construct: endogenous in cells; host or cells: HEK293T
Description: as §1, §2

EI24 = molecular target: T11, EI24 (Homo sapiens, UniProt O14681); assay: Viral trapping in VLPs, MS analysis; assay type: binding; details: all proteins (incl. low confidence identifications)
T11 construct: endogenous in cells; host or cells: HEK293T
Description: as §1, §2

ECE1 = molecular target: T12, ECE1 (Homo sapiens, UniProt P42892); assay: Viral trapping in VLPs, MS analysis; assay type: binding
T12 construct: endogenous in cells; host or cells: HEK293T
Description: as §1, §2

RTN3 = molecular target: T13, RTN3 (Homo sapiens, UniProt O95197); assay: Viral trapping in VLPs, MS analysis; assay type: binding; details: all proteins (incl. low confidence identifications)
T13 construct: endogenous in cells; host or cells: HEK293T
Description: as §1, §2

FAM62A = tested on: FAM62A
Description: as §1, §2

PRSS3 = details: all proteins (incl. low confidence identifications)
Description: as §1, §2

C28H10ORF35 = details: all proteins (incl. low confidence identifications)
Description: as §1, §2

[1] = all proteins (incl. low confidence identifications)
[2] = proteins identified with >1 peptide (high confidence)

T3 sequence (O43805 whole entry): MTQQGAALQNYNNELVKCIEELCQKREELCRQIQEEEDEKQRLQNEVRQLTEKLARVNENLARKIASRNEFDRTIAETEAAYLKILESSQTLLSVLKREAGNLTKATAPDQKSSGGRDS
T10 sequence (Q9NQC3 whole entry): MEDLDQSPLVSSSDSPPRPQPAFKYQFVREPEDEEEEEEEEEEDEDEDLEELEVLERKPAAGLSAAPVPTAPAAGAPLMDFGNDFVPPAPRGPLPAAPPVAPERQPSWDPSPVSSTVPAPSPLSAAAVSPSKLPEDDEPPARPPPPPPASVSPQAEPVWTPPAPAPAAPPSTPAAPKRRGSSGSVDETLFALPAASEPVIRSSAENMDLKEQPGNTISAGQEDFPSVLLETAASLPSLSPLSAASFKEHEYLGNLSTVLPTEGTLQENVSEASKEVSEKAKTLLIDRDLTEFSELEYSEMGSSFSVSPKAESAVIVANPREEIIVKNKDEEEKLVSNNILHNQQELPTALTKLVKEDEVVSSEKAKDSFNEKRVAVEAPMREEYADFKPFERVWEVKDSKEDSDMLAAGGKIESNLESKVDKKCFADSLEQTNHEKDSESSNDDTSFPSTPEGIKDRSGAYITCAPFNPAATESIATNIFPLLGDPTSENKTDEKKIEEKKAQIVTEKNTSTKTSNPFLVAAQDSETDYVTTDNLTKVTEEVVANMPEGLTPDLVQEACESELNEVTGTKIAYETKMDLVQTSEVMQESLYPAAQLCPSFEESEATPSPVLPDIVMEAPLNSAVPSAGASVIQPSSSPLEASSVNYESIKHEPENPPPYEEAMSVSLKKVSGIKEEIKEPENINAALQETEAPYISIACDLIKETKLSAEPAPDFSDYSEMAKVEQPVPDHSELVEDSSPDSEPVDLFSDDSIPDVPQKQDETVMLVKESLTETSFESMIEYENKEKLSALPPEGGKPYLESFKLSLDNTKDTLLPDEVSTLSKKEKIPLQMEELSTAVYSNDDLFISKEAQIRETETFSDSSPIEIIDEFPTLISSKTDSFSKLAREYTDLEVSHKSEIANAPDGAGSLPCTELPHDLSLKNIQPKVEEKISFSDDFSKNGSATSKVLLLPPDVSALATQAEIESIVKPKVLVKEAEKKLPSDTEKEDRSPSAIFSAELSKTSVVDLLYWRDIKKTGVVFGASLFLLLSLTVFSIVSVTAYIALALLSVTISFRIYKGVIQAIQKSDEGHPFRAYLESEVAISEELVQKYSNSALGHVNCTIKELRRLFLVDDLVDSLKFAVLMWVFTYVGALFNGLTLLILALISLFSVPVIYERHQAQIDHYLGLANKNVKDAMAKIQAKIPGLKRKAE
T12 sequence (P42892 whole entry): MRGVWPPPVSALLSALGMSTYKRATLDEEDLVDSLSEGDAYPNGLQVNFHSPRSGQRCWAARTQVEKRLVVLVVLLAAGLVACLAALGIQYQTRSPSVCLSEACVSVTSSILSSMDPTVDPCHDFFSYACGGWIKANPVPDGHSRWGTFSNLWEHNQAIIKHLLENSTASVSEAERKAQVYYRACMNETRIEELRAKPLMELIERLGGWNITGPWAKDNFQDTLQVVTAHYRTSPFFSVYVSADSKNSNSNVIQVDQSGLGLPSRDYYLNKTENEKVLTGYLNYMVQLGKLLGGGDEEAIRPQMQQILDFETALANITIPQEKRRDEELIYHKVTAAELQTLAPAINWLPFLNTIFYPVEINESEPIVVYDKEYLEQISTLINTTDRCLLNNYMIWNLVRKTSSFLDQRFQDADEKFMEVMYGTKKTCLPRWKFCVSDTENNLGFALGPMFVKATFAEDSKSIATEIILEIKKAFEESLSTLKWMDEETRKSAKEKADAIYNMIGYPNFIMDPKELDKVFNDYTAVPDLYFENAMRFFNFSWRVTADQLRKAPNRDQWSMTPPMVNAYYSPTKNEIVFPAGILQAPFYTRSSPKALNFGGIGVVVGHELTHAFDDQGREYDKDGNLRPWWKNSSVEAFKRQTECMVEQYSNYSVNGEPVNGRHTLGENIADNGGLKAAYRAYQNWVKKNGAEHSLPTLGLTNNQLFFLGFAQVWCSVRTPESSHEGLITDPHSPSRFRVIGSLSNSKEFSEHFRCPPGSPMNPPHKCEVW
T4 sequence (P40926 25-338): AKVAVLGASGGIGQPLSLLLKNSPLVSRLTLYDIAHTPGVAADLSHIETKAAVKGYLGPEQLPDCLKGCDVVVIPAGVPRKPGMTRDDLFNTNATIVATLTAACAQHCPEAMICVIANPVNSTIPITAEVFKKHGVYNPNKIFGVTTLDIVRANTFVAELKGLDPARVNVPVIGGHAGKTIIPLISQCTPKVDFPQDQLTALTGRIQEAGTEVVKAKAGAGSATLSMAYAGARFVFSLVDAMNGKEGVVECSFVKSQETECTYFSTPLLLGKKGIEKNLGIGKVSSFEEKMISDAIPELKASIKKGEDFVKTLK
T13 sequence (O95197 whole entry): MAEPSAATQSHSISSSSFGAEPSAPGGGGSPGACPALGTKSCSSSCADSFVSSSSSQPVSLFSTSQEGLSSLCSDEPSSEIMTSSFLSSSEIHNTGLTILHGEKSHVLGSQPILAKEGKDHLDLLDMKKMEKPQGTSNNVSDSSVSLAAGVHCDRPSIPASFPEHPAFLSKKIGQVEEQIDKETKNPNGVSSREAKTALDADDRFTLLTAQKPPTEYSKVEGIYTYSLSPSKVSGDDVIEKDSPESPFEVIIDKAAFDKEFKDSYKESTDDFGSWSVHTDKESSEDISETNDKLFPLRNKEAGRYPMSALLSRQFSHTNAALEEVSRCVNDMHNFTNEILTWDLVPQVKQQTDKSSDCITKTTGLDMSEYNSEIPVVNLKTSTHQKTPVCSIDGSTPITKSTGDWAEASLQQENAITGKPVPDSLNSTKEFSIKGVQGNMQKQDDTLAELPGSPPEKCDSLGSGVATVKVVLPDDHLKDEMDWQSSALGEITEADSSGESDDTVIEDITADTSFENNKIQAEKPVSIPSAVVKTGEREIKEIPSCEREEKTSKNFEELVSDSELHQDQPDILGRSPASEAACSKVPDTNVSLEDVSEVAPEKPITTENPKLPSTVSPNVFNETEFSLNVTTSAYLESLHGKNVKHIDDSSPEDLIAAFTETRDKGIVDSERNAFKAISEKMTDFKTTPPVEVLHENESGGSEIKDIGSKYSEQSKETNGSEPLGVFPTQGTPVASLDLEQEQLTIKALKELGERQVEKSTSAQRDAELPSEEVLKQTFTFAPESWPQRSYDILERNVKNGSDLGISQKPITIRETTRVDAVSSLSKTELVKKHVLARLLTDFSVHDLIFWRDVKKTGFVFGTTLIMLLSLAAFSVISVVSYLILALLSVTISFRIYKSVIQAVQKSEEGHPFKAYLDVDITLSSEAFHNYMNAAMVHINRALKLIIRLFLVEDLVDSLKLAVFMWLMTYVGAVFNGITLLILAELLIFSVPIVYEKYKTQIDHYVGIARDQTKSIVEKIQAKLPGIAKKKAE
T5 sequence (Q16850 whole entry): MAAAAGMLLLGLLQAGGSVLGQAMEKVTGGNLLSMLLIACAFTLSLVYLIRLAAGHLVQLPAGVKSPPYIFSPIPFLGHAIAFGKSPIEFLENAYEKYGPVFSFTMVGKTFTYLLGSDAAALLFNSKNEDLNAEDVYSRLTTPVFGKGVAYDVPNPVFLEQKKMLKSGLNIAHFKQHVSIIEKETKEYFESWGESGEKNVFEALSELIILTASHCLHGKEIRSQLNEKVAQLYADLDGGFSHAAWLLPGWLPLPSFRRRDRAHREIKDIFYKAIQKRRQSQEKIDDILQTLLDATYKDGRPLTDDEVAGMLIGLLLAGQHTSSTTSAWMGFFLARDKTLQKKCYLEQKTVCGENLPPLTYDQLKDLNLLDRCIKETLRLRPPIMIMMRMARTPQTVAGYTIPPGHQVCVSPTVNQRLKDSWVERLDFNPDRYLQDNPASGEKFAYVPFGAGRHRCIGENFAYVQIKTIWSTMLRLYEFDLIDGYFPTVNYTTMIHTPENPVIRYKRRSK
T2 sequence (P62166 whole entry): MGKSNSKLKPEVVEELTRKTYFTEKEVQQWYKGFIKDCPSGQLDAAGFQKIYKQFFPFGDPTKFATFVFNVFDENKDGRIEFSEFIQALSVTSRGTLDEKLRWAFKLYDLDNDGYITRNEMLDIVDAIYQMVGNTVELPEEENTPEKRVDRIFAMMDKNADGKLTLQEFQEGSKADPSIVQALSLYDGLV
T9 sequence (A1L0T0 whole entry): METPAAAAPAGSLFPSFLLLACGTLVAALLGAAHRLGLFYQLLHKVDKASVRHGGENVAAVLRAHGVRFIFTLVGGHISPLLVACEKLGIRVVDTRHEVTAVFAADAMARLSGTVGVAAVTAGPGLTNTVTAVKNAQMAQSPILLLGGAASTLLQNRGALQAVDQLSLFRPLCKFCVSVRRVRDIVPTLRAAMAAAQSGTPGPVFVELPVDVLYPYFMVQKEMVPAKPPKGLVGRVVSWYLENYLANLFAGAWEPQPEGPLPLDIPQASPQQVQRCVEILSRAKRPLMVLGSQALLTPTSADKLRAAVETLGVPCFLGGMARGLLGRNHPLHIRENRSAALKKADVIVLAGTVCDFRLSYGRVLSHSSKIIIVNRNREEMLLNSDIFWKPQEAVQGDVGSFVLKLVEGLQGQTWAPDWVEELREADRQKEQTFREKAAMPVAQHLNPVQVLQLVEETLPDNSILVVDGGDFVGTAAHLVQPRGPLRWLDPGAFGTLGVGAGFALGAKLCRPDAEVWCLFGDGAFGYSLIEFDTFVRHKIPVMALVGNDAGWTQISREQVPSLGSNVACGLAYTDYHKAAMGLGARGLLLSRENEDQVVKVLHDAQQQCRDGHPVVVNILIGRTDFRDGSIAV
T8 sequence (Q99942 whole entry): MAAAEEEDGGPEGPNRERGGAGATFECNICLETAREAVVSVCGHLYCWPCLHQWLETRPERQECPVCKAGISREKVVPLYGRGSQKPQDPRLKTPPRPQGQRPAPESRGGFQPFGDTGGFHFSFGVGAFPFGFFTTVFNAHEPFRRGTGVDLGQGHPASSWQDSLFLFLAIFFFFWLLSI

Structure (SMILES): CCC(=C(c1ccccc1)c1ccc(OCCN(C)Cc2cn(CCOCCOCCOCCOCCOCCNC(=O)CCC(NC(=O)c3ccc(N(C)Cc4cnc5nc(N)nc(N)c5n4)cc3)C(=O)O)nn2)cc1)c1ccccc1 (stereo not shown) [MTX-PEG6-tamoxifen]
- Recurrence (x/4) (CALU): 1 x/4
- Recurrence (x/4) (NCS1): 1 x/4
- Recurrence (x/4) (SSNA1; [1]): 4 x/4
- Recurrence (x/4) (SSNA1; [2]): 2 x/4
- Recurrence (x/4) (MDH2; [1]): 1 x/4
- Recurrence (x/4) (MDH2; [2]): 1 x/4
- Recurrence (x/4) (CYP51A1): 1 x/4
- Recurrence (x/4) (HSD17B4; [1]): 4 x/4
- Recurrence (x/4) (HSD17B4; [2]): 4 x/4
- Recurrence (x/4) (PTPLAD1): 1 x/4
- Recurrence (x/4) (RNF5): 3 x/4
- Recurrence (x/4) (ILVBL): 1 x/4
- Recurrence (x/4) (RTN4; [1]): 1 x/4
- Recurrence (x/4) (RTN4; [2]): 1 x/4
- Recurrence (x/4) (EI24): 2 x/4
- Recurrence (x/4) (ECE1; [1]): 1 x/4
- Recurrence (x/4) (ECE1; [2]): 1 x/4
- Recurrence (x/4) (RTN3): 1 x/4
- Recurrence (x/4) (FAM62A; [1]): 1 x/4
- Recurrence (x/4) (FAM62A; [2]): 1 x/4
- Recurrence (x/4) (PRSS3): 1 x/4
- Recurrence (x/4) (C28H10ORF35): 1 x/4

— patent US11231416B2, “Virus-like particle (VLP) based small molecule-protein interaction trap” (VIB VZW, priority 2015, dated 2022)
